US10280229B2, “Linkers and their application towards ADC” (MEDSHINE DISCOVERY INC., priority 2014, dated 2019)

What follows are compounds tested against bovine cathepsin B (Bos taurus, UniProt P07688) (assay: Rate of hydrolysis of fluorescent dipeptide substrates incubated with bovine cathepsin B (release of 7-AMC)). Settings: incubation with bovine cathepsin B.
Format: biochemical
Experimental: A convenient method was developed to identify suitable dipeptide units for the use in drug-linker intermediates. Cbz-protected dipeptides incorporated a fluorescent tag (7-amino-4-methylcouramin, 7-AMC) via a para-aminobenzyl carbonyl fragment were prepared by standard peptide chemistry as shown in Scheme 1. These dipeptide substrates were then incubated with bovine cathepsin B under a similar condition as described by Dubowchik (Biorg. Med. Chem. Lett. 1998, 8, 3341-3346). Rate of hydrolysis by bovine cathepsin B was measured by the release of 7-AMC (Table 1). Novel dipeptides with hydrolysis rates slower than the substrate A were rejected. The three dipeptide units in FS-9, FS-10 and FS-11 were selected as additional dipeptide units for drug-linker intermediate preparation.
With Cc1cc(=O)oc2cc(NC(=O)OCc3ccc(NC(=O)[C@H](CCCN4CCCCC4)NC(=O)[C@@H](NC(=O)OCc4ccccc4)C(C)C)cc3)ccc12 the “Rate of Hydrolysis” value was 25.1 nmmol/min/mg.
For Cc1cc(=O)oc2cc(NC(=O)OCc3ccc(NC(=O)[C@H](CCCNC(N)=O)NC(=O)[C@@H](NC(=O)OCc4ccccc4)C4CCN(C)CC4)cc3)ccc12, the “Rate of Hydrolysis” value was 0.59 nmmol/min/mg.
With Cc1cc(=O)oc2cc(NC(=O)OCc3ccc(NC(=O)[C@H](CCCNC(N)=O)NC(=O)[C@@H](NC(=O)OCc4ccccc4)C(C)C)cc3)ccc12 [reference compound] the “Rate of Hydrolysis” value was 2.67 nmmol/min/mg.
With Cc1cc(=O)oc2cc(NC(=O)OCc3ccc(NC(=O)C(CC4CCC(CN)CC4)NC(=O)[C@@H](NC(=O)OCc4ccccc4)C(C)C)cc3)ccc12 (stereo partly drawn) the “Rate of Hydrolysis” value was 20.9 nmmol/min/mg.
For Cc1cc(=O)oc2cc(NC(=O)OCc3ccc(NC(=O)[C@H](CCCNC(N)=O)NC(=O)[C@@H](NC(=O)OCc4ccccc4)C4CCSCC4)cc3)ccc12, the “Rate of Hydrolysis” value was 0 nmmol/min/mg.
Cc1cc(=O)oc2cc(NC(=O)OCc3ccc(NC(=O)[C@H](CCCNC(N)=O)NC(=O)[C@@H](NC(=O)OCc4ccccc4)C4CCS(=O)(=O)CC4)cc3)ccc12 was tested, and the “Rate of Hydrolysis” value was 0 nmmol/min/mg.
Cc1cc(=O)oc2cc(NC(=O)OCc3ccc(NC(=O)[C@H](CCCNC(N)=O)NC(=O)[C@@H](NC(=O)OCc4ccccc4)C4CCNCC4)cc3)ccc12 was tested, and the “Rate of Hydrolysis” value was 0.84 nmmol/min/mg.
In the case of Cc1cc(=O)oc2cc(NC(=O)OCc3ccc(NC(=O)[C@H](CCCNC(N)=O)NC(=O)[C@@H](NC(=O)OCc4ccccc4)C4CCCNC4)cc3)ccc12 (stereo partly drawn), the “Rate of Hydrolysis” value is reported as 0 nmmol/min/mg.
In the case of CCOC(=O)N1CCC([C@H](NC(=O)OCc2ccccc2)C(=O)N[C@@H](CCCNC(N)=O)C(=O)Nc2ccc(COC(=O)Nc3ccc4c(C)cc(=O)oc4c3)cc2)CC1, the “Rate of Hydrolysis” value is reported as 0.63 nmmol/min/mg.
Cc1cc(=O)oc2cc(NC(=O)OCc3ccc(NC(=O)[C@H](CCCNC(N)=O)NC(=O)[C@@H](NC(=O)OCc4ccccc4)C4CCOCC4)cc3)ccc12 was tested, and the “Rate of Hydrolysis” value was 0.84 nmmol/min/mg.
Cc1cc(=O)oc2cc(NC(=O)OCc3ccc(NC(=O)[C@H](CCCN4CCOCC4)NC(=O)[C@@H](NC(=O)OCc4ccccc4)C(C)C)cc3)ccc12 was tested, and the “Rate of Hydrolysis” value was 27.2 nmmol/min/mg.
With Cc1cc(=O)oc2cc(NC(=O)OCc3ccc(NC(=O)[C@H](CCCNC(N)=O)NC(=O)[C@@H](NC(=O)OCc4ccccc4)C4CC[S+]([O-])CC4)cc3)ccc12 (stereo partly drawn) the “Rate of Hydrolysis” value was 0.55 nmmol/min/mg.
